# Measured values from US20190211020A1 (Agency for Science, Technology and Research, priority 2012, published 2019).
# Test system: eIF4E Ser209 phosphorylation in Hela cells
# Experiment: MNK cell-based assay (AlphaScreen SureFire, eIF4E Ser209 phosphorylation)
# Conditions: Homo sapiens, HeLa, 2 h, read-out: IC50 Hela
# In short: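 Hela cells (30,000/well) exposed to test compound in serum-free medium for 2 h at 37 °C, then lysed. Phospho-Ser209 eIF4E quantified by AlphaScreen SureFire; IC50 obtained by non-linear regression of signal versus log compound concentration.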
row,SMILES,IC50 [µM]
1,"Cc1cc2ncc(-c3ccc(C#N)cc3)n2cc1-c1ccc(C(=O)N2CCC(C)(N)CC2)cc1 [Example 137, 4-(6-(4-(4-amino-4-methylpiperidine-1-carbonyl)phenyl)-7-methylimidazo[1,2-a]pyridin-3-yl)benzonitrile]",< 1
2,"CC1(N)CCN(C(=O)c2ccc(-c3ccc4ncc(-c5ccc(Cl)cc5)n4c3)cc2)CC1 [Example 173, (4-amino-4-methylpiperidin-1-yl)(4-(3-(4-chlorophenyl)imidazo [1,2-a]pyridin-6-yl)phenyl)methanone]",< 1

# Same assay, conditions: Homo sapiens; eIF4E Ser209 phosphorylation, Hela cells, 2 hours; read-out: IC50 Hela
row,SMILES,IC50 [µM]
1,"CNc1cc(-c2ccc3ncc(-c4ccc(C#N)cc4)n3c2)ccc1C(=O)N1CCOCC1 [Example 151, 4-(6-(3-(methylamino)-4-(morpholine-4-carbonyl)phenyl)imidazo[1,2-a]pyridin-3-yl)benzonitrile]",< 1
2,CN1CCN(C(=O)c2ccc(-c3ccc4ncc(-c5ccc(C#N)cc5)n4c3)c(Cl)c2)CC1 [Example 153],< 1
3,Cc1cc(-c2ccc3ncc(-c4ccc(C#N)cc4)n3c2)ccc1C(=O)N1CCOCC1 [Example 156],< 1
4,CN1CCN(C(=O)c2ccc(-c3ccc4ncc(-c5ccc(C#N)cc5)n4c3)cc2OC(F)(F)F)CC1 [Example 157],< 1
5,COc1cc(-c2ccc3ncc(-c4ccc(C#N)cc4)n3c2)ccc1C(=O)N1CCOCC1 [Example 158],< 1
6,"N#Cc1ccc(-c2cnc3ccc(-c4ccc(C(=O)N5CCNCC5)c(O)c4)cn23)cc1 [Example 159, 4-(6-(3-hydroxy-4-(piperazine-1-carbonyl)phenyl)imidazo[1,2-a]pyridin-3-yl)benzonitrile]",< 1
7,"N#Cc1ccc(-c2cnc3ccc(-c4ccc(C(=O)N5CCOCC5)c(N5CCOCC5)c4)cn23)cc1 [Example 160, 4-(6-[3-(morpholin-4-yl)-4-(morpholin-4-ylcarbonyl)phenyl]imidazo[1,2-a]pyridin-3-yl)benzonitrile]",< 1
8,"N#Cc1ccc(-c2cnc3ccc(-c4ccc(C(=O)N5CCOCC5)c(F)c4)cn23)cc1 [Example 162, 4-(6-(3-fluoro-4-(morpholine-4-carbonyl)phenyl)imidazo [1,2-a]pyridin-3-yl)benzonitrile]",< 1
9,"CC1(N2CCOCC2)CCN(C(=O)c2ccc(-c3ccc4ncc(-c5ccc(C#N)cc5)n4c3)cc2)CC1 [Example 163, 4-(6-(4-(4-methyl-4-morpholinopiperidine-1-carbonyl)phenyl)imidazo [1,2-a]pyridin-3-yl)benzonitrile]",< 1
10,"CN1CCN(C2(C)CCN(C(=O)c3ccc(-c4ccc5ncc(-c6ccc(C#N)cc6)n5c4)cc3)CC2)CC1 [Example 164, 4-(6-(4-(4-methyl-4-(4-methylpiperazin-1-yl)piperidine-1-carbonyl)phenyl)imidazo [1,2-a]pyridin-3-yl)benzonitrile]",< 1
11,"N#Cc1ccc(-c2cnc3ccc(-c4ccc(C(=O)N5CCNCC5)cc4)cn23)cc1 [Example 165, 4-(6-(4-(piperazine-1-carbonyl)phenyl)imidazo [1,2-a]pyridin-3-yl)benzonitrile]",< 1
12,"CC(=O)Nc1cc(-c2ccc3ncc(-c4ccc(C#N)cc4)n3c2)ccc1C(=O)N1CCOCC1 [Example 166, N-(5-(3-(4-cyanophenyl)imidazo[1,2-a]pyridin-6-yl)-2-(morpholine-4-carbonyl)phenyl)acetamide]",< 1
13,"N#Cc1ccc(-c2cnc3ccc(-c4ccc(C(=O)N5CCOCC5)c(O)c4)cn23)cc1 [Example 167, 4-(6-(3-hydroxy-4-(morpholine-4-carbonyl)phenyl)imidazo[1,2-a]pyridin-3-yl)benzonitrile]",< 1
14,"CNC1CCN(C(=O)c2ccc(-c3ccc4ncc(-c5ccc(C#N)cc5)n4c3)cc2NC(C)=O)CC1 [Example 169, N-(5-(3-(4-cyanophenyl)imidazo[1,2-a]pyridin-6-yl)-2-(4-(methylamino)piperidine-1-carbonyl)phenyl)acetamide]",< 1
15,"CC(=O)Nc1cc(-c2ccc3ncc(-c4ccc(C#N)cc4)n3c2)ccc1C(=O)N1CCNCC1 [Example 170, N-(5-(3-(4-cyanophenyl)imidazo[1,2-a]pyridin-6-yl)-2-(piperazine-1-carbonyl)phenyl)acetamide]",< 1
16,"COC1(C)CCN(C(=O)c2ccc(-c3ccc4ncc(-c5ccc(C#N)cc5)n4c3)cc2)CC1 [Example 172, 4-(6-(4-(4-methoxy-4-methylpiperidine-1-carbonyl)phenyl)imidazo[1,2-a]pyridin-3-yl)benzonitrile]",< 1
17,"NC1CCN(C(=O)c2ccc(-c3ccc4ncc(-c5ccc(Cl)cc5)n4c3)cc2)CC1 [Example 174, (4-aminopiperidin-1-yl)(4-(3-(4-chlorophenyl)imidazo[1,2-a]pyridin-6-yl)phenyl)methanone]",< 1
18,"CN1CCN(C2CCN(C(=O)c3ccc(-c4ccn5ncc(-c6ccc(C#N)cc6)c5n4)cc3)CC2)CC1 [Example 179, 4-(5-(4-(4-(4-methylpiperazin-1-yl)piperidine-1-carbonyl)phenyl)pyrazolo[1,5-a]pyrimidin-3-yl)benzonitrile]",< 1
19,"N#Cc1ccc(-c2cnn3ccc(-c4ccc(C(=O)N5CCCOCC5)cc4)nc23)cc1 [Example 181, 4-(5-(4-(1,4-oxazepane-4-carbonyl)phenyl)pyrazolo[1,5-a]pyrimidin-3-yl)benzonitrile]",< 1
20,"N#Cc1ccc(-c2cnn3ccc(-c4ccc(C(=O)N5CCNCC5)cc4)nc23)cc1 [Example 183, 4-(5-(4-(piperazine-1-carbonyl)phenyl)pyrazolo[1,5-a]pyrimidin-3-yl)benzonitrile]",< 1
21,CC(=O)N1CCN(C(=O)c2ccc(-c3ccn4ncc(-c5ccc(C#N)cc5)c4n3)cc2)CC1 [Example 184],< 1

# Second part, the molecule after the results:
row,IC50 [µM],SMILES
1,< 1,"N#Cc1ccc(-c2cnc3ccc(-c4ccc(C(=O)N5CCN(C(=O)c6ccccc6)CC5)cc4)cn23)cc1 [Example 126, 4-(6-(4-(4-benzoylpiperazine-1-carbonyl)phenyl)imidazo[1,2-a]pyridin-3-yl)benzonitrile]"
2,< 1,"N#Cc1ccc(-c2cnc3ccc(-c4ccc(C(=O)N5CCN(Cc6ccc(C(N)=O)cc6)CC5)cc4)cn23)cc1 [Example 129, 4-((4-(4-(3-(4-cyanophenyl)imidazo[1,2-a]pyridin-6-yl)benzoyl)piperazin-1-yl)methyl)benzamide]"
3,< 1,"CN1CCN(C(=O)c2ccc(-c3ccc4ncc(-c5ccc(C#N)cc5)n4c3)cc2)CC1=O [Example 130, 4-(6-(4-(4-methyl-3-oxopiperazine-1-carbonyl)phenyl)imidazo[1,2-a]pyridin-3-yl)benzonitrile]"
4,< 1,"N#Cc1ccc(-c2cnc3ccc(-c4ccc(C(=O)N5CCC(N6CCOCC6)CC5)cc4)cn23)cc1 [Example 134, 4-(6-(4-(4-morpholinopiperidine-1-carbonyl)phenyl)imidazo[1,2-a]pyridin-3-yl)benzonitrile]"
5,< 1,"Cc1nnc(C2(C)CCN(C(=O)c3ccc(-c4ccc5ncc(-c6ccc(C#N)cc6)n5c4)cc3)CC2)o1 [Example 135, 4-(6-(4-(4-methyl-4-(5-methyl-1,3,4-oxadiazol-2-yl)piperidine-1-carbonyl)phenyl)imidazo [1,2-a]pyridin-3-yl)benzonitrile]"
6,< 1,"Cc1cc2ncc(-c3ccc(C#N)cc3)n2cc1-c1ccc(C(=O)N2CCN(C)CC2)cc1 [Example 138, 4-(7-methyl-6-(4-(4-methylpiperazine-1-carbonyl)phenyl)imidazo[1,2-a]pyridin-3-yl)benzonitrile]"
7,< 1,"CN1CCN(C(=O)c2ccc(-c3ccc4ncc(-c5ccc(C#N)cc5)n4c3)c(F)c2)CC1 [Example 140, 4-(6-(2-fluoro-4-(4-methylpiperazine-1-carbonyl)phenyl)imidazo [1,2-a]pyridin-3-yl)benzonitrile]"
8,< 1,"CN1CCN(C(=O)c2ccc(-c3ccc4ncc(-c5ccc(C#N)cc5)n4c3)cc2Cl)CC1 [Example 141, 4-(6-(3-chloro-4-(4-methylpiperazine-1-carbonyl)phenyl)imidazo[1,2-a]pyridin-3-yl)benzonitrile]"
9,< 1,"CN1CCN(C(=O)c2ccc(-c3ccc4ncc(-c5ccc(C#N)cc5)n4c3)cc2F)CC1 [Example 142, 4-(6-(3-fluoro-4-(4-methylpiperazine-1-carbonyl)phenyl)imidazo[1,2-a]pyridin-3-yl)benzonitrile]"
10,< 1,"CN1CCN(C(=O)c2ccc(-c3ccc4ncc(-c5ccc(C#N)cc5)n4c3)cc2C(F)(F)F)CC1 [Example 145, 4-(6-(4-(4-methylpiperazine-1-carbonyl)-3-(trifluoromethyl)phenyl)imidazo[1,2-a]pyridin-3-yl)benzonitrile]"
11,< 1,"CN1CCN(C(=O)c2ccc(-c3ccc4ncc(-c5ccc(C#N)cc5)n4c3)cc2N)CC1 [Example 146, 4-(6-(3-amino-4-(4-methylpiperazine-1-carbonyl)phenyl)imidazo [1,2-a]pyridin-3-yl)benzonitrile]"
12,< 1,"CN1CCN(C(=O)c2ccc(-c3ccc4ncc(-c5ccc(C#N)cc5)n4c3)cc2N(C)C)CC1 [Example 147, 4-(6-(3-(dimethylamino)-4-(4-methylpiperazine-1-carbonyl)phenyl)imidazo[1,2-a]pyridin-3-yl)benzonitrile]"
13,< 1,"CC(=O)Nc1cc(-c2ccc3ncc(-c4ccc(C#N)cc4)n3c2)ccc1C(=O)N1CCN(C)CC1 [Example 149, N-(5-(3-(4-cyanophenyl)imidazo[1,2-a]pyridin-6-yl)-2-(4-methylpiperazine-1-carbonyl)phenyl)acetamide]"
14,< 1,"CNc1cc(-c2ccc3ncc(-c4ccc(C#N)cc4)n3c2)ccc1C(=O)N1CCN(C)CC1 [Example 150, 4-(6-(3-(methylamino)-4-(4-methylpiperazine-1-carbonyl)phenyl)imidazo [1,2-a]pyridin-3-yl)benzonitrile]"

# Same assay, conditions: eIF4E Ser209 phosphorylation, Hela cells, 2 hours; read-out: IC50 Hela
row,SMILES,IC50 [µM]
1,CN1CCN(C(=O)c2ccc(-c3ccc4ncc(-c5ccc(C#N)cc5)n4c3)cc2O)CC1 [Example 143],< 1
2,CN1CCN(C(=O)c2ccc(-c3ccc4ncc(-c5ccc(C#N)cc5)n4c3)c(O)c2)CC1 [Example 144],< 1
